Experimental findings from patent US12098129B2, “Pharmaceutical composition for treating fibrosis” (LTT BIO-PHARMA CO., LTD., priority 2018, dated 2024) are described below.

The test system of data set [1] is LL29 cells (IPF patient-derived lung fibroblast cells). The experiment in a line: MTT cell viability of lung fibroblast cells compared with alveolar epithelial cells. In kind it is cell-based, human. As to the method:
(§1) A549 cells (human alveolar epithelial cells) and LL29 cells (IPF patient-derived lung fibroblast cells) were cultured under conditions of 37° C. and 5% CO2 by using, respectively, Dulbecco's modified Eagle's medium containing 10% FBS and Ham's F-12K (Kaighn's) medium containing 15% FBS.
(§2) The number of living cells was measured by an MTT method or trypan blue staining using Countess (trademark) Automated Cell Counter (Invitrogen, Carlsbad, CA). For evaluation of cell death, LDH activity in the medium was measured in accordance with the protocol of the assay kit.
For a specific method, IPF patient-derived lung fibroblast cells (LL29 cells) and human alveolar epithelial cells (A549 cells) were treated with existing approved drugs, and the cell viability 24 hours later was evaluated by an MTT method.
As with (b-1) above, IPF patient-derived lung fibroblast cells (LL29 cells) and human alveolar epithelial cells (A549 cells) were treated with existing approved drugs, and the cell viability 24 hours later was evaluated by an MTT method.

The test system of data set [2] is LL29 cells. The data set is described as follows: LDH activity in the medium (cell death), LL29 cells. In kind it is cell-based, human. To be noted: 150 μM. Here is the method:
as §1, §2
(§3) More minute doses than the doses used during screening test were applied to examine the cell death inducing action of idebenone and to simultaneously conduct a screening reproducibility experiment.

Data set [3] deals with A549 cells (human alveolar epithelial cells). The data set is described as follows: LDH activity in the medium (cell death), A549 cells. In kind it is cell-based. The settings on record: 150 μM. As to the method:
as §1, §2, §3

Data set [4] relates to LL29 cells. The data set is described as follows: Number of living and dead cells by trypan blue staining, LL29 cells. Format: cell-based, human. As to the method: as §1, §2
(§4) Thus, the present inventors measured the number of living cells and the number of dead cells with the aid of trypan blue staining.

In the next data set the test system is A549 cells. The experiment in a line: Number of living and dead cells by trypan blue staining, A549 cells. Format: cell-based, human. As to the method:
as §1, §2, §4

In data set [5] the test system is BLM pulmonary injury model mouse. The data set is described as follows: BLM pulmonary injury model: H&E / Masson's trichrome staining, Ashcroft score, hydroxyproline. Format: in vivo.
Data set [6] has the same test system. The data set is described as follows: BLM pulmonary injury model: lung function (elastance, FVC) with ventilator for mice. In kind it is in vivo. As to the method:
(§5) On day 1, BLM was administered via the airway to a normally reared male ICR mouse to prepare a BLM pulmonary injury model mouse.
The lung function was measured in accordance with previous literature by using a computer-controlled ventilator for small animals (FlexiVent; SCIREQ, Montreal, Canada). A metal tube (with an outer diameter of 1.27 mm and an inner diameter of 0.84 mm) was inserted by 8 mm into a mouse anesthetized with chloral hydrate (500 mg/kg), and the mouse was caused to breathe mechanically at a rate of 150 breaths/min with a tidal volume of 8.7 ml/kg and a positive end-expiratory pressure ventilation of 2-3 cm H2O.
The total respiratory elastance and the tissue elastance were measured by the snap shot and the forced oscillation technique, respectively. The forced vital capacity was measured in accordance with Chest 142, 1011-1019 (2012) by using the computer-controlled ventilator for small animals and a negative pressure reservoir (SCIREQ, Montreal, Canada). All the data was analyzed by using FlexiVent software (version 5.3; SCIREQ, Montreal, Canada).

Data set [7] has the same test system. The experiment in a line: BLM pulmonary injury model: α-SMA immunostaining of the lung (myofibroblast cells). Format: in vivo. The settings on record: FIGS. 7A and 7B. Here is the method:
as §5
A method for immunostaining with α-SMA was carried out by blocking the section with 2.5% goat serum for 10 minutes, and then performing a primary antibody treatment (against α-SMA, 1:100 dilution). At 12 hours later, the section was incubated with Alexa Fluor 594 goat anti-rabbit immunoglobulin G and DAPI for 2 hours. Thereafter, the section was encapsulated by using VECTA SHIELD. The section was photographed by using a microscope (Olympus DP71).
An α-SMA-positive region was quantitatively determined by using Image J software (National Institutes of Health, Bethesda, MD) The number of 8-OHdG-positive cells was quantitatively determined by using Definiens Tissue Studio (trademark) software (CTC Life Science Corporation, Tokyo, Japan).

For data set [8], the system named is LL29 cells. The experiment in a line: TGF-β1-dependent activation of lung fibroblast cells: amount of collagen in the medium. Format: cell-based, human. The settings on record: LL29 cells treated with drug, then TGF-β1. Here is the method: as §1
(§6) As described above, myofibroblast cells played an important role on pulmonary fibrosis in patients with IPF and bleomycin-induced pulmonary fibrosis. Thus, with attention focused on myofibroblast cells, the effects of idebenone and COQ10 were examined. […] Thus, the effects of idebenone and CoQ10 on TGF-β1-dependent activation of lung fibroblast cells (differentiation into myofibroblast cells) were compared. LL29 cells were treated with idebenone or CoQ10, and then treated with TGF-β1, and the amount of collagen in the medium was measured. […] Next, the effect of idebenone was examined by using the levels of α-SMA and mRNA of collagen as indices.

Data set [9] has as its system LL29 cells. The data set is described as follows: TGF-β1-dependent activation of lung fibroblast cells: α-SMA and Col1a1 mRNA by real-time RT-PCR. In kind it is cell-based, human. Here is the method:
Total RNA of cells was extracted by using RNeasy kit (Qiagen). 2.5 μg of total RNA was subjected to reverse transcription reaction in accordance with the protocol from Takara Bio Inc by using a first-strand cDNA synthesis kit (Takara Bio Inc). The synthesized cDNA was analyzed with a CFX96 (trademark) real time system by using SsoFast EvaGreen Supermix. For equalizing the total RNA amounts in the reactions, a glyceraldehyde-3-phosphate dehydrogenase (GAPDH) gene was used as an internal standard.
as §1, §6
Background: Quantitative PCR measures a nucleic acid by following its amplification.

Setting [10] is: airway administration, pre-administration (FIG. 3D).

As for `COC1=C(OC)C(=O)C(CCCCCCCCCCO)=C(C)C1=O` [idebenone], the “fibroblast cell-selective decrease in cell viability / cell death (LL29 versus A549)” value in data set [1] (LL29 versus A549 cells, survived cell number) is given as “decreased the cell viability of LL29 cells (lung fibroblast cells) at a concentration lower than a concentration at which the cell viability of A549 cells (alveolar epithelial cells) decreased”. Further, in data set [1] (screening of existing approved drugs, MTT, 24 hours, IC50 for LL29 lower than for A549), the “difference in IC50 (concentration required to decrease the cell viability by 50%) between LL29 and A549 cells” value is reported as “particularly marked difference in value of IC50”. Also, the “LDH released into the medium” value in the data set with LL29 cells [2] was “LDH was released into the medium”; in [3], “little LDH was released”. The “concentration at which induction of cell death started” value in the data set on LL29 cells [4] amounted to 175 µM. Besides, the “concentration at which suppression of proliferation started” value in the data set on LL29 cells [4] worked out at 75 µM. For the same compound, the “concentration at which suppression of cell proliferation started” value in the data set with A549 cells came to 175 µM. In addition, the “induction of cell death” value in the data set with A549 cells (examined concentrations) was “did not induce cell death at examined concentrations”. In addition, the “effect of drug alone on pulmonary fibrosing and the respiratory function” value in data set [5] (airway administration, 18.8 mg/kg, alone (without BLM)) is “did not affect pulmonary fibrosing and the respiratory function”. Also, the “pulmonary injury and fibrosing by bleomycin” value is recorded as “suppressed” in data set [5] (airway administration, comparison idebenone / CoQ10 (FIGS. 5A to 5C)) and “suppressed” in [5] (therapeutic effects, comparison idebenone / CoQ10 (FIGS. 6A to 6C)). For the same compound, the “BLM-dependent increase in Ashcroft score” value in data set [5] (airway administration, pre-administration (FIG. 3B)) is “markedly suppressed such an increase”. In data set [5] (airway administration, pre-administration (FIG. 3C)), the “BLM-dependent increase in amount of hydroxyproline” value was “markedly suppressed such an increase”. Moreover, in [5] (airway administration, pre-administration day 1 to day 7 (FIG. 3A)), the “BLM-dependent pulmonary injuries and collagen accumulation” value is “markedly suppressed such injuries and collagen accumulation”. In addition, the “pulmonary injury and fibrosing 20 days after administration of BLM” value in data set [5] (therapeutic: airway administration started 10 days after BLM (FIGS. 4A to 4C)) was “markedly suppressed pulmonary injury and fibrosing”. Moreover, the “BLM-dependent decrease in FVC” value in data set [6] (setting [10]) is given as “tended to suppress such a decrease”. In addition, the “BLM-dependent increase in total respiratory system elastance and tissue elastance” value in data set [6] (setting [10]) was “suppressed such an increase”. Moreover, in data set [6] (therapeutic: airway administration started 10 days after BLM (FIG. 4D)), the “BLM-dependent decrease in respiratory function” value is on record as “markedly suppressed a BLM-dependent decrease in respiratory function”. Besides, the “bleomycin-induced increase in number of α-SMA-positive cells (myofibroblast cells) of the lung” value in data set [7] was “markedly suppressed such an increase”. Also, the “TGF-β1-induced increase in amount of collagen in the medium” value in the data set on LL29 cells [8] was “suppressed such an increase”. Further, in the data set on LL29 cells [9], the “TGF-β1-induced expression of α-SMA and Col1a1 mRNA” value is recorded as “suppressed such induction”.
